Patent US11298364B2, “Methods and products for preventing and/or treating microorganism infections comprising iron chelators and non-iron porphyrins” (The University of Adelaide, priority 2015, dated 2022)

What was measured:
[1] = tested on: S. aureus ATCC 25923 biofilms; assay: S. aureus biofilm killing, 96-well biofilm, AlamarBlue viability assay; assay type: cell-based, Staphylococcus aureus; conditions: 2 h
Experimental: Single colonies of S. aureus ATCC 25923 (American Type Culture Collection, Manassas, Va., USA) were immersed in 0.45% saline (Sigma Aldrich, Germany), adjusted to 1.0±0.1 McFarland units (3×10^8 colony forming units/ml), and diluted 1:15 in nutrient broth (Oxoid Ltd., England). The bacteria-broth mixture was added into 96-well plates at 150 μl per well (Costar®, Corning Incorporated, NY, USA). Incubation for 72 hours at 37° C. on a rotating plate set at 70 rpm (3D Gyratory Mixer, Ratek Instruments, Australia) assured extensive S. aureus biofilm growth.
Biofilms were washed twice with phosphate buffered saline (PBS, Sigma Aldrich, Germany) to remove planktonic cells, before treating the biofilms with various concentrations of i) Deferiprone (“Def”; 3-hydroxy-1,2-dimethylpyridin-4(1H)-one, Sigma Aldrich, Germany), ii) Gallium-Protoporphyrin (“GAPP”; Frontier Scientific, UT, USA), iii) a concurrent combination of both compounds and iv) a consecutive combination of both compounds. To prepare the treatments, Def was dissolved in water and GaPP was dissolved in an aqueous 0.03% solution of Tween® 80 (polyoxyethylene sorbitan […], Sigma Aldrich, Germany), i.e. above the critical micelle concentration (CMC) of Tween® 80 ([…]). Controls included bacterial wells without treatment (i.e. 100% bacterial growth, negative control), blank wells without bacteria (i.e. 0% growth, positive control) and bacterial wells with Tween® 80 treatment (as a control for GaPP dilutions). After 2 hours incubation of each treatment at 37° C. on a rotating plate, a second washing step with PBS followed to remove the treatments.
Bacterial viability was assessed using the AlamarBlue cell viability assay as described in Peeters, E. et al. (2008) Journal of Microbiological Methods, 72(2): p. 157-165. A 10% AlamarBlue dilution (Resazurin, Life Technologies, Australia) in nutrient broth was prepared and added to each well. Plates were incubated in the dark at 37° C. on a rotating plate. Fluorescence of Resorufin was measured hourly on a FLUOstar OPTIMA plate reader (BMG LABTECH, Germany). The method was set at bottom reading and fluorescence was measured at λexcitation 530 nm/λemission 590 nm. Maximum intensities were typically reached after 6 hours incubation and used for quantification according to Equation 1:
Bacterial viability was determined as the percentage of biofilm killing (% BK), where IC represents the fluorescence intensity of the controls (i.e. 100% bacterial growth) and IT indicates the maximum intensity of the treatments. Both IC and IT were corrected by the intensity of background (i.e. 0% bacterial growth).

[2] = tested on: planktonic S. aureus ATCC 25923; assay: Minimal inhibitory concentration, broth microdilution (Example 1); assay type: cell-based, Staphylococcus aureus; conditions: 20 hours, 37° C.
Experimental: MIC values were assessed for the individual compounds Def and GaPP against planktonic S. aureus using standard methods, specifically colony suspension method and broth microdilution as described in Wiegand, I. et al. (2008) Nat Protoc, 3(2): p. 163-75. Briefly, single colonies of S. aureus ATCC 25923 were suspended in 0.45% saline and adjusted to 0.5 McFarland units. The bacterial suspension was 1:100 diluted with nutrient broth and plated into 96-well plates. Various treatment dilutions of Def and GaPP were added, followed by incubation of the plate at 37° C. for 20 hours. The MIC was determined as the lowest drug concentration preventing turbidity.

[3] = tested on: L929 cells (mouse fibroblast cell line); assay: LDH cell viability test; assay type: cell-based; conditions: 2 h
Experimental: (§1) L929 cells (mouse fibroblast cell line) and Nuli-1 cells (human airway epithelial cell line) were obtained from ATCC (American Type Culture Collection, Manassas, Va., USA). The Nuli-1 cell line was cultured in Bronchial Epithelial Cell Growth Medium (Lonza, Australia) and L929 cells were grown in Dulbecco's Modified Eagle Medium (Sigma-Aldrich, Germany). Cells were maintained in a fully humidified incubator with 5% CO2 at 37° C.
(§2) The lactate dehydrogenase (LDH) bioassay (Roche Diagnostics Corporation, Indianapolis, Ind., USA) was performed to assess the cytotoxic effects of Def and GaPP. Briefly, cells were seeded at 1×10^4 into each well in 100 μl in quadruplicate wells of 96-well flat-bottom plates and incubated for 24 hours (37° C., 5% CO2) to allow attachment of cells. To assess the toxicity of the dual treatment, firstly, 100 μl of Def (20 mM) was added to each well. After 2 hours incubation, cells were washed three times with PBS and were exposed to different concentrations of GaPP (100, 200, 300, 400 and 500 μg/ml) for another 2 hours. In addition, cells were separately treated with either Def or GaPP for 2 hours. The OD was measured at 490 nm.

[4] = tested on: Nuli-1 cells (human airway epithelial cell line); assay: LDH cell viability test; assay type: cell-based; conditions: 2 h
Experimental: as §1, §2

[5] = tested on: S. aureus; assay: Plate assay for anti-bacterial properties (agar holes filled with vehicle); assay type: cell-based; conditions: in vehicle: 20 mM Def and/or 200 μg/ml GaPP, 24 hours
Experimental: To investigate the anti-bacterial properties of Def and GaPP individually, or with Def and GaPP in combination, a plate assay was used. Briefly, liquid nutrient agar was mixed with an aliquot of a S. aureus or Pseudomonas aeruginosa overnight culture and poured into Petri dishes. After the agar was solidified, holes (0.9 cm diameter) were punched into the agar and aspirated. Subsequently, the holes were filled with 200 μl of a vehicle with and without Def/GaPP. Following incubation at 37° C. for 24 hours, the inhibition diameter was assessed as a measure of efficacy against S. aureus or Pseudomonas aeruginosa bacteria.

[6] = Drug release from hydrogel into phosphate buffered saline; assay type: physicochemical
Experimental: Drug release: Five millilitre of gel was prepared in a Falcon tube and allowed to solidify, after which 10 ml release medium (phosphate buffered saline, Sigma Aldrich) was added. The tube was incubated at 37° C. on a rotating platform for 20 days. […] The concentration of […] quantified by UV-Vis spectroscopy (Evolution 201 UV-Vis Spectrophotometer, Thermo Fisher Scientific, Scoresby, VIC, Australia) at 280 nm and 405 nm, respectively, by interpolating from a standard curve.

[7] = tested on: planktonic S. aureus ATCC 25923; assay: MIC of gel-released drugs, broth dilution (Example 6); assay type: cell-based, Staphylococcus aureus; conditions: S. aureus 25923
Experimental: (§3) Bacterial strains: S. aureus ATCC 25923 was purchased from American Type Culture Collection (Manassas, Va., USA). Clinical MRSA isolate strains were obtained from Adelaide Pathology Partners (Mile End, SA, Australia).
(§4) The MIC was evaluated as the lowest drug concentration preventing bacterial growth.

[8] = tested on: planktonic clinical MRSA isolate MRSA a; assay: as above; assay type: cell-based, Staphylococcus aureus; conditions: MRSA a (resistant to 4 antibiotics)
Experimental: as §3, §4

[9] = tested on: planktonic clinical MRSA isolate MRSA b; assay: as above; assay type: cell-based, Staphylococcus aureus; conditions: MRSA b (resistant to 4 antibiotics)
Experimental: as §3, §4

[10] = tested on: planktonic clinical MRSA isolate MRSA c; assay: as above; assay type: cell-based, Staphylococcus aureus; conditions: MRSA c (resistant to 5 antibiotics)
Experimental: as §3, §4

[11] = tested on: planktonic clinical MRSA isolate MRSA d; assay: as above; assay type: cell-based, Staphylococcus aureus; conditions: MRSA d (resistant to 7 antibiotics)
Experimental: as §3, §4

[12] = tested on: planktonic clinical MRSA isolate MRSA e; assay: as above; assay type: cell-based, Staphylococcus aureus; conditions: MRSA e (resistant to 9 antibiotics)
Experimental: as §3, §4

[13] = Staphylococcus aureus, read-out: minimal inhibitory concentration

Compound: Cc1c(O)c(=O)ccn1C [Def, 3-hydroxy-1,2-dimethylpyridin-4(1H)-one, reference compound]
- Biofilm killing (%) by single treatment Def ([1]; Def 0.5 mM): 6.09%
- Biofilm killing (%) by single treatment Def ([1]; Def 1.5 mM): 7.65%
- Biofilm killing (%) by single treatment Def ([1]; Def 5 mM): 12.07%
- Biofilm killing (%) by single treatment Def ([1]; Def 10 mM): 22.88%
- Biofilm killing (%) by single treatment Def ([1]; Def 20 mM): 34.00%
- biofilm reduction plateau ([1]; Def at concentrations above 20 mM): approximately 34%
- MIC ([2]; Staphylococcus aureus, ATCC25923, read-out: MIC): 2500 µM
- cell viability (LDH assay) vs negative control ([3]; Def 20 mM): no statistically significant difference
- cell viability (LDH assay) vs negative control ([4]; Def 20 mM): no statistically significant difference
- anti-bacterial activity (inhibition on plate) [5]: relatively little anti-bacterial activity
- time to complete release from hydrogel ([6]; 37° C., PBS): 48 to 72 h
- release of Def (percentage of the original concentration in the gel) ([6]; after approximately 48-72 hours, 37° C., PBS): 100%
- MIC ([7]; Staphylococcus aureus, ATCC25923, read-out: minimal inhibitory concentration): 28 µg/mL
- MIC [8, 13]: 56 µg/mL
- MIC [9, 13]: 56 µg/mL
- MIC [10, 13]: 56 µg/mL
- MIC [11, 13]: 56 µg/mL
- MIC [12, 13]: 56 µg/mL

Compound: C=CC1=C(C)C2=[N+]3C1=Cc1c(C)c(C=C)c4[n]1[Ga-]31[n]3c(c(C)c(CCC(=O)O)c3=CC3=[N+]1C(=C4)C(C)=C3CCC(=O)O)=C2 (stereo not shown) [GaPP, gallium-protoporphyrin IX]
- Biofilm killing (%) by single treatment GaPP ([1]; GaPP 1 μg/ml): 9.04%
- Biofilm killing (%) by single treatment GaPP ([1]; GaPP 5 μg/ml): 32.18%
- Biofilm killing (%) by single treatment GaPP ([1]; GaPP 10 μg/ml): 41.99%
- Biofilm killing (%) by single treatment GaPP ([1]; GaPP 50 μg/ml): 52.90%
- Biofilm killing (%) by single treatment GaPP ([1]; GaPP 100 μg/ml): 69.86%
- MIC [2]: 0.4 µg/mL
- cell viability (LDH assay) vs negative control ([3]; GaPP 500 μg/ml): induced cell toxicity
- cell viability (LDH assay) vs negative control ([3]; GaPP 100-400 μg/ml): no significant effect
- cell viability (LDH assay) vs negative control ([4]; GaPP 500 μg/ml): induced cell toxicity
- cell viability (LDH assay) vs negative control ([4]; GaPP 100-400 μg/ml): no significant effect
- anti-bacterial activity (inhibition on plate) [5]: significant anti-bacterial activity
- release of GaPP (percentage of the original concentration in the gel) ([6]; after 460 hours, 37° C., PBS): 20-25%
- incorporated GaPP released from the hydrogel ([6]; after 20 days): approximately 25%
- minimal inhibitory concentration [7]: 0.90 µg/mL
- minimal inhibitory concentration [8]: 1.48 µg/mL
- minimal inhibitory concentration [9]: 0.74 µg/mL
- minimal inhibitory concentration [10]: 1.48 µg/mL
- minimal inhibitory concentration [11]: 1.48 µg/mL
- minimal inhibitory concentration [12]: 1.48 µg/mL
